This is an account of results in PubChem BioAssay (NCI).

Molecules are shown by their SMILES.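 Growth conditions: 96-well plates. Treatment: test compound, 48 hours, 5 concentrations. Analysis: linear interpolation between bracketing concentrations; unreached endpoints set to highest concentration. The concentration for full growth arrest is given as TGI.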 A value given as a limit tells only on which side of the number the result lay.

Test systems include ACHN renal; EKVX NSCLC; K-562 leukemia; SF-539 CNS; SNB-19 CNS; SW-620 colon; T-47D breast; U251 CNS; UACC-62 melanoma; UO-31 renal.
What all share (experiment): DTP human tumour cell line panel, 48 h

Regarding `COc1ccc2c(c1)c(=O)c1c(NCCCN(C)CCCNc3ccc4c(=O)n(CCN(C)C)c(=O)n5c6ccc(OC)cc6c(=O)c3c45)ccc3c(=O)n(CCN(C)C)c(=O)n2c31`, the concentration for total growth inhibition (TGI) (as a rule, the concentration at which net growth stops) in the assay with ACHN renal is 1.42 µM; with EKVX NSCLC, 1.3 µM; with K-562 leukemia it was 1.11 µM; in the assay on SF-539 CNS, 1.95 µM; in the assay on SNB-19 CNS, 2.17 µM; with SW-620 colon, 0.752 µM. The TGI was 9.43 µM in the assay on T-47D breast, 1.26 µM in the assay with U251 CNS, 0.956 µM with UACC-62 melanoma and 1.01 µM in the assay on UO-31 renal.

Take `CCN(CC)c1ccc(/C=c2\nc(-c3ccccc3)n3c2nc2ccccc23)cc1`: the concentration for total growth inhibition (TGI) is 88.3 µM in the assay on ACHN renal; 35.4 µM with EKVX NSCLC; more than 100 µM with K-562 leukemia; 11.4 µM with SF-539 CNS; more than 100 µM in the assay on SNB-19 CNS; more than 100 µM in the assay with SW-620 colon. The concentration for total growth inhibition (TGI) is 5.84 µM with T-47D breast, more than 100 µM with U251 CNS, 30.9 µM with UACC-62 melanoma and more than 100 µM in the assay with UO-31 renal.

For the molecule `CC1(CCc2ccccc2)CC1(Br)Br` (stereo not given), the TGI in the assay with ACHN renal is 61 µM; in the assay with EKVX NSCLC, 40 µM; with K-562 leukemia, 38.2 µM; in the assay on SF-539 CNS, more than 100 µM; with SNB-19 CNS it was more than 100 µM; with SW-620 colon it was more than 100 µM. The TGI in the assay with T-47D breast, with U251 CNS, with UACC-62 melanoma and with UO-31 renal was more than 100 µM throughout.

Regarding `COC(=O)c1ccc(CCC2=CC(=O)C(Br)=CC2=O)cc1`, the TGI was found to be 25.1 µM with ACHN renal; 38.7 µM in the assay on EKVX NSCLC; 4.84 µM in the assay with K-562 leukemia; 31.8 µM with SF-539 CNS; 29.2 µM in the assay on SNB-19 CNS; 27.1 µM with SW-620 colon. Besides, the concentration for total growth inhibition (TGI) was 70.9 µM with T-47D breast, 32.5 µM in the assay on U251 CNS, 31.7 µM in the assay on UACC-62 melanoma and 29.2 µM with UO-31 renal.

Consider `Cc1c(C#N)c2nnn(-c3ccc([N+](=O)[O-])cc3)c(=O)n2c1-c1ccccc1`, for which the total growth inhibition concentration (TGI) with ACHN renal is 16.4 µM; in the assay on EKVX NSCLC, 32 µM; in the assay with K-562 leukemia, 30.6 µM; in the assay with SF-539 CNS it was 28.1 µM; with SNB-19 CNS, 36.7 µM; in the assay with SW-620 colon, 51 µM. The TGI is 14.3 µM in the assay with T-47D breast, 14.5 µM in the assay with U251 CNS, 19.4 µM in the assay on UACC-62 melanoma and 25.5 µM in the assay on UO-31 renal.

As for `COc1cc(CCNC2=CC(=O)c3cccnc3C2=O)ccc1O`, the TGI was 5.61 µM in the assay on ACHN renal; 11.5 µM with EKVX NSCLC; 2.15 µM in the assay with K-562 leukemia; 3.04 µM in the assay with SF-539 CNS; 4.04 µM in the assay with SNB-19 CNS; 2.94 µM with SW-620 colon. Also, the TGI in the assay with T-47D breast came out at 35.1 µM; in the assay on U251 CNS it was 7.05 µM; in the assay on UACC-62 melanoma it was 2.7 µM; in the assay with UO-31 renal it was 2.83 µM.

As to `NNC(=O)Cc1cccnc1`, the TGI in the assay with ACHN renal, with EKVX NSCLC, in the assay with K-562 leukemia, in the assay on SF-539 CNS, with SNB-19 CNS and with SW-620 colon was more than 100 µM in each case. The TGI in the assay on T-47D breast, in the assay with U251 CNS, in the assay on UACC-62 melanoma and in the assay on UO-31 renal was more than 100 µM throughout.

On to `O=C(CCCC1Cc2ccccc2C1=O)c1ccccc1` (stereo not given), for which the TGI with ACHN renal, with EKVX NSCLC, in the assay with K-562 leukemia, in the assay on SF-539 CNS, with SNB-19 CNS and with SW-620 colon was more than 100 µM in each case. The concentration for total growth inhibition (TGI) in the assay on T-47D breast, with U251 CNS, with UACC-62 melanoma and in the assay on UO-31 renal was more than 100 µM in each case.

On to `OCCN1CN(c2nc(N3CN(CCO)C3)nc(N3CN(CCO)C3)n2)C1`, for which the total growth inhibition concentration (TGI) in the assay on ACHN renal is 95.3 µM; in the assay on EKVX NSCLC, 70.1 µM; in the assay on K-562 leukemia, 87.3 µM; in the assay with SF-539 CNS, 35 µM; in the assay on SNB-19 CNS it was 49.6 µM; in the assay on SW-620 colon, more than 100 µM. For the same molecule, the TGI with T-47D breast amounted to 64.7 µM; with U251 CNS, 53 µM; with UACC-62 melanoma, 28.8 µM; with UO-31 renal, 56.1 µM.

In the case of `COC(=O)C1=COC(C)C2C[n+]3ccc4c([nH]c5ccccc54)c3CC12` (stereo not given), the TGI in the assay with ACHN renal, in the assay on EKVX NSCLC, in the assay on K-562 leukemia, in the assay with SF-539 CNS, in the assay on SNB-19 CNS and with SW-620 colon was more than 100 µM throughout. The TGI in the assay on T-47D breast, with U251 CNS, in the assay on UACC-62 melanoma and in the assay on UO-31 renal was more than 100 µM each time.

Turning to `N#Cc1ccc(OC(=O)c2ccc(N=C(N)N)cc2)cc1`, the TGI in the assay on ACHN renal, in the assay with EKVX NSCLC, in the assay on K-562 leukemia, with SF-539 CNS, in the assay on SNB-19 CNS and in the assay with SW-620 colon was more than 100 µM in each case. The TGI in the assay on T-47D breast, in the assay on U251 CNS, with UACC-62 melanoma and in the assay with UO-31 renal was more than 100 µM throughout.

Take `Cc1c(C)c2c(c(N)c1C#N)C(=O)N(OS(=O)(=O)c1ccccc1)C2=O`: the TGI in the assay on ACHN renal is 33.1 µM; in the assay on EKVX NSCLC, 37.4 µM; with K-562 leukemia, 43.4 µM; with SF-539 CNS it was 34.2 µM; in the assay on SNB-19 CNS it was more than 100 µM; in the assay on SW-620 colon, 47.2 µM. The TGI in the assay on T-47D breast was 20 µM; in the assay with U251 CNS it was 49.5 µM; in the assay on UACC-62 melanoma, 61.4 µM; in the assay with UO-31 renal, more than 100 µM.

As for `C/C=C1\CN2CCC34c5ccccc5N(C)C35OCC4(C(=O)OC)C1CC25` (stereo not given), the concentration for total growth inhibition (TGI) in the assay on ACHN renal, in the assay on EKVX NSCLC, with K-562 leukemia, with SF-539 CNS, in the assay with SNB-19 CNS and with SW-620 colon was more than 100 µM each time. The TGI is 75.7 µM with T-47D breast, more than 100 µM with U251 CNS, more than 100 µM in the assay on UACC-62 melanoma and more than 100 µM with UO-31 renal.
